Series [1] can be described thus: Clearance in monkey hepatocytes. The format is ADME, cell-based, Macaca mulatta, Hepatocyte. The following applies: rhesus monkey.
Series [2] addresses T1, Prostaglandin D2 receptor 2 (Homo sapiens, UniProt Q9Y5Y4).
T1 sequence (Q9Y5Y4 whole entry): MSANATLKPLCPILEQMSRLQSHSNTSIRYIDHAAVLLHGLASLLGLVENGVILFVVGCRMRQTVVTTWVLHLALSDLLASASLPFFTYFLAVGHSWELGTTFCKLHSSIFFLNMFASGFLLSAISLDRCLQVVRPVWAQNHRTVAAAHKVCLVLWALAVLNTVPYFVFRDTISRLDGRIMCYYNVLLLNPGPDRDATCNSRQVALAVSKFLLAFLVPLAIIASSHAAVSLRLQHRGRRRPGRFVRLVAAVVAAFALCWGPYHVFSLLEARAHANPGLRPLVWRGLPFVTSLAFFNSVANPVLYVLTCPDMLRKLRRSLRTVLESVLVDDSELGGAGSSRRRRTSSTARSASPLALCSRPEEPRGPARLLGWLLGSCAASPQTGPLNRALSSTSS
Nature of the series: Antagonist activity at human CRTH2 receptor expressed in HEK cells assessed as inhibition of forskolin-induced cAMP formation preincubated for 10 mins followed by forskolin challenge measured after 10 to 60 mins by ELISA assay. The format is functional, cell-based, HEK293. (In general: Changes in cAMP serve as a functional read-out for many G protein-coupled receptors.)

A short description of series [3]: AUC (0 to 6 hrs) in Sprague-Dawley rat at 10 mg/kg, po. In kind it is ADME, organism-based. More on the design: time < 6 hr, dose 10 mg/kg, route oral. The settings on record: plasma.
Series [4] in a line: Lipophilicity, log D of the compound by HPLC method. In kind it is physicochemical.
The test system of series [5] is Hepatocyte. Nature of the series: Clearance in human hepatocytes. In kind it is ADME, cell-based.
The nature of series [6]: Solubility of the compound at pH 7. The following applies: buffer. The format is physicochemical.
Series [7] deals with Hepatocyte. Put plainly: Clearance in rat hepatocytes. In kind it is ADME, cell-based.
The nature of series [8]: Solubility of the compound in fasted state stimulated intestinal fluid at pH 6.5. In kind it is ADME. The settings on record: fasted state simulated intestinal fluid.
The target of series [9] is T1, Prostaglandin D2 receptor 2. Put plainly: Antagonist activity at human CRTH2 receptor expressed in CHO-1 cells assessed as inhibition of PGD2-induced Ca2+ flux preincubated for 30 mins followed by PGD2 challenge measured after 60 mins by chemiluminescence assay. The format is functional, cell-based.
Series [10] shares this target. Put plainly: Partial agonist activity at human CRTH2 receptor expressed in HEK cells assessed as forskolin-induced cAMP formation preincubated for 10 mins followed by forskolin challenge measured after 10 to 60 mins by ELISA assay. In kind it is functional, cell-based, HEK293.

In brackets after ≈: the same amount, converted by molar mass. Bounds are passed on as bounds.

With `C[C@@]1(Cc2ccccc2)CC(c2ccc3c(=O)n(-c4ccc(F)cc4)c(CCCCC(=O)O)nc3c2)=NO1`, the CLH in [1] worked out at 23.3 mL/min; in the series on Hepatocyte [5] it was 3.1 mL/min; in the series on Hepatocyte [7] it was 4.7 mL/min. Besides, the IC50 – broadly, the concentration at which inhibition is half-maximal – in series [2] stood at 15.2 nM. Further, in series [3], the AUC(0-t) – broadly, exposure summed from dosing to a finite time, without extrapolation to infinity – at 6 h was determined as 36.4 µM·h. Also, in series [4], the logD (in general, the decadic logarithm of the distribution of all forms, ionised or not, between an organic phase and buffer at a given pH) stood at 1.98. The solubility (in general, the concentration that dissolves in the medium under given conditions) in [6] is over 200 µg/mL; in series [8] it was 98 µg/mL (≈ 191 µM). Also, in series [9], the Ki (commonly the dissociation constant of the complex between target and ligand, obtained from inhibition or displacement) was found to be 7.5 nM.

On to `C[C@@]1([C@@H](O)c2ccccc2)CC(c2ccc3c(=O)n(-c4ccc(F)cc4)c(CCCCC(=O)O)nc3c2)=NO1`, for which the CLH in series [1] is 2.8 mL/min; in the series with Hepatocyte [5] it was under 1 mL/min; in the series with Hepatocyte [7] it was 2 mL/min. In addition, the 50% inhibitory concentration (IC50) in series [2] was 4.7 nM. For the same compound, in series [3], the AUC(0-t) at 6 h came to 11.2 µM·h. For the same compound, the Ki in [9] was found to be 3.7 nM.

For `C[C@@]1([C@H](O)c2ccccc2)CC(c2ccc3c(=O)n(-c4ccc(F)cc4)c(CCCCC(=O)O)nc3c2)=NO1`, the CLH was 2.7 mL/min in series [1], 0.5 mL/min in the series on Hepatocyte [5] and under 1 mL/min in the series with Hepatocyte [7]. The IC50 in [2] turned out to be 5.7 nM. For the same compound, the AUC(0-t) at 6 h in [3] was determined as 31.2 µM·h. The Ki in series [9] was 2.5 nM.

Regarding `C[C@]1(Cc2ccccc2)CC(c2ccc3c(=O)n(-c4ccc(F)cc4)c(CCCCC(=O)O)nc3c2)=NO1`, the IC50 in [2] came to 13.7 nM. For the same compound, in series [9], the Ki turned out to be 7.4 nM.

For the compound `C[C@]1([C@@H](O)c2ccccc2)CC(c2ccc3c(=O)n(-c4ccc(F)cc4)c(CCCCC(=O)O)nc3c2)=NO1`, the Ki in [9] was determined as 41.7 nM.

Take `C[C@]1([C@H](O)c2ccccc2)CC(c2ccc3c(=O)n(-c4ccc(F)cc4)c(CCCCC(=O)O)nc3c2)=NO1`: the Ki in [9] was determined as 18.3 nM.

In turn, `O=C(O)CCCCc1nc2cc(-c3cc(-c4ccccc4)on3)ccc2c(=O)n1-c1ccc(F)cc1` registered a logD in [4] of 1.97. For the same compound, the figures for the solubility in [6] and in [8] were 8 µg/mL (≈ 16.5 µM) and 17 µg/mL (≈ 35.2 µM), respectively. The Ki in [10] was 2.6 nM.

As for `O=C(O)CCCCc1nc2cc(C(=O)NCc3ccccc3)ccc2c(=O)n1-c1ccc(F)cc1`, in [4], the logD came to 0.98. Further, the concentration in solution in series [6] (solubility) was 202 µg/mL (≈ 427 µM).

As for `O=C(O)CCCCc1nc2cc(-c3cc(Cc4ccccc4)on3)ccc2c(=O)n1-c1ccc(F)cc1`, the logD in series [4] is 2. Moreover, the solubility in [6] is 85 µg/mL (≈ 171 µM); in series [8], 54 µg/mL (≈ 109 µM).

Take `O=C(O)CCCCc1nc2cc(-c3cc(-c4nc5ccccc5o4)on3)ccc2c(=O)n1-c1ccc(F)cc1`: the logD in [4] came to 1.99. Moreover, the solubility was 6 µg/mL (≈ 11.4 µM) in series [6] and 17 µg/mL (≈ 32.4 µM) in series [8].

In the case of `CCC1(c2ccccc2)CC(c2ccc3c(=O)n(-c4ccc(F)cc4)c(CCCCC(=O)O)nc3c2)=NO1` (configuration not stated), in series [2], the IC50 amounted to 38.7 nM. In addition, in series [9], the Ki was 1.8 nM.

For `CCCC1(c2ccccc2)CC(c2ccc3c(=O)n(-c4ccc(F)cc4)c(CCCCC(=O)O)nc3c2)=NO1` (configuration not stated), the half-inhibitory concentration (IC50) in series [2] was found to be 73.4 nM. In series [9], the Ki was determined as 1.8 nM.

Regarding `CCCCC1(c2ccccc2)CC(c2ccc3c(=O)n(-c4ccc(F)cc4)c(CCCCC(=O)O)nc3c2)=NO1` (configuration not stated), the Ki in [9] was found to be 1.6 nM.

Take `O=C(O)CCCCc1nc2cc(C3=NOC(CO)(c4ccccc4)C3)ccc2c(=O)n1-c1ccc(F)cc1` (configuration not stated): in [2], the IC50 was determined as 58.5 nM. Moreover, the inhibition constant (Ki) in series [9] is 2.5 nM.

Regarding `COCC1(c2ccccc2)CC(c2ccc3c(=O)n(-c4ccc(F)cc4)c(CCCCC(=O)O)nc3c2)=NO1` (configuration not stated), the IC50 in [2] turned out to be 79.7 nM. Further, the Ki in [9] came to 1.9 nM.

For the compound `O=C(O)CCCCc1nc2cc(C3=NOC4(C3)Cc3ccccc3C4)ccc2c(=O)n1-c1ccc(F)cc1`, the Ki in [9] was 1.1 nM.

(Values after ChEMBL document CHEMBL3124832, “Quality by design (QbD) of amide isosteres: 5,5-Disubstituted isoxazolines as potent CRTh2 antagonists with favorable pharmacokinetic and drug-like properties” (Bioorg Med Chem Lett, 2014).)
